ChEMBL document CHEMBL1221331, “Discovery of biphenylketones as dual modulators of inflammation and bone loss” (Bioorg Med Chem Lett, 2010)
Calls of active or inactive are those of the source. The rule behind the calls is not given here.

Columns and labels:
J774 = test: Cytotoxicity against mouse J774 cells expressing RANKL signaling by Alamar blue assay; format: functional, cell-based
[1] = Cytotoxicity against mouse osteoclast cells expressing RANKL signaling by Alamar blue assay; format: functional, cell-based
[2] = Cytotoxicity against mouse osteoblast cells by alamar blue assay; format: cell-based
Mus musculus [3] = test: Antiarthritic activity in mouse assessed as inhibition of collagen-induced arthritis at 10 mg/kg/day, po administered 15 days post collagen challenge; format: functional, organism-based
Mus musculus [4] = test: Effect on ovariectomy-induced bone loss in mouse assessed as reduction in trabecular bone mineral density at 20 mg/kg/day, po (reference value: bone mineral density loss = 34%); format: functional, Trabecula; parameters: scale not given: the % may be the effect or the level left
[5] = molecular target: T1, Tumor necrosis factor ligand superfamily member 11 (Mus musculus) (UniProt O35235); test: Inhibition of NFkappa signaling in mouse macrophages assessed as reduction in RANKL-induced IkapppaB phosphorylation at 50 uM pretreated for 1 hr before RANKL challenge by Western blotting
T1 sequence (whole entry): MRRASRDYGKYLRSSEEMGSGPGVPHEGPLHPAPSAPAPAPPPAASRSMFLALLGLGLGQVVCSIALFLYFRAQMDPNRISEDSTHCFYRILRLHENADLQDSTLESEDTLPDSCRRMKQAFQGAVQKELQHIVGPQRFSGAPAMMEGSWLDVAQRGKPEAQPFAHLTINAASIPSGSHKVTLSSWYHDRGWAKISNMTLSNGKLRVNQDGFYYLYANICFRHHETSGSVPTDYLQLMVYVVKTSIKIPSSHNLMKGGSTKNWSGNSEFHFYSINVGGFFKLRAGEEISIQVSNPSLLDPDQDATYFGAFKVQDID

[6] = Inhibition of NFkappa signaling in mouse macrophages assessed as reduction in TNF-alpha-induced IkapppaB phosphorylation at 50 uM pretreated for 1 hr before TNFalpha challenge by Western blotting
[7] = Inhibition of NFkappa signaling in mouse macrophages assessed as reduction in TNF-alpha-induced IkapppaB phosphorylation at 10 uM pretreated for 1 hr before TNFalpha challenge by Western blotting
Mus musculus [8] = test: Anti-resorptive activity against ovariectomy-induced bone loss in mouse assessed as increase in trabecular bone mineral density at 20 mg/kg/day, po relative to untreated control; format: functional, Trabecula
Mus musculus [9] = test: Antiarthritic activity in mouse assessed as inhibition of collagen-induced arthritis at 10 mg/kg/day, ip administered 15 days post collagen challenge; format: functional, organism-based
[10] = molecular target: T1, Tumor necrosis factor ligand superfamily member 11 (Mus musculus); test: Inhibition of NFkappa signaling in mouse macrophages assessed as reduction in RANKL-induced IkapppaB phosphorylation at 10 uM pretreated for 1 hr before RANKL challenge by Western blotting

Compound | IC50 (J774) | also measured
Cc1ccccc1-c1ccc(C(O)CCCCCO)cc1 (stereo not given) | 24 µM | 
CCOc1ccc(-c2ccc(C(O)CCCCCO)cc2)cc1 (stereo not given) | 14 µM | 
OCCCCCC(O)c1ccc(-c2ccc(F)cc2)cc1 (stereo not given) | 18 µM | 
Cc1cc(F)ccc1-c1ccc(C(=O)CCCCCO)cc1 | 20 µM | 
OCCCCCC(O)c1ccc(-c2ccc(F)cc2F)cc1 (stereo not given) | 8 µM | 
Cc1cc(C(O)CCCCCO)ccc1-c1ccc(F)cc1F (stereo not given) | 8 µM | IC50 [1]: 1.3 µM; IC50 [2]: > 100 µM
Cc1ccc(-c2ccc(C(O)CCCCCO)cc2)cc1 (stereo not given) | 22 µM | 
OCCCCCC(O)c1ccc(-c2ccc(F)cc2)cc1F (stereo not given) | 14 µM | 
Cc1cc(S(=O)(=O)NCCCCO)ccc1-c1ccc(F)cc1F |  | inhibition (Mus musculus [3]): Active
Cc1cc(-c2ccc(F)cc2F)ccc1C(=O)CCCCCO | 4 µM | 
O=C(CCCCCO)c1ccc(-c2ccccc2)cc1 | 22 µM | Activity (Mus musculus [4]): 21%; IC50 [1]: 9 µM; IC50 [2]: > 100 µM
COc1cc(F)ccc1-c1ccc(C(O)CCCCCO)cc1 (stereo not given) | 70 µM | 
OCCCCCC(O)c1ccc(-c2ccccc2O)cc1 (stereo not given) | 40 µM | 
O=C(CCCCCO)c1ccc(-c2ccc(F)c(F)c2)cc1 | 20 µM | 
OCCCCCC(O)c1ccc(-c2ccc(O)cc2)cc1 (stereo not given) | 15 µM | 
OCCCCCC(O)c1ccc(-c2ccc(OC(F)(F)F)cc2)cc1 (stereo not given) | 14 µM | 
OCCCCCCc1ccc(-c2ccccc2)cc1 |  | inhibition [5]: inactive; inhibition [6]: inactive; inhibition [7]: inactive
OCCCCCC(O)c1ccc(-c2ccc(F)cc2)cc1Cl (stereo not given) | 8 µM | 
OCCCCCC(O)c1ccc(-c2ccc(Br)cc2)cc1 (stereo not given) | 20 µM | 
CN(C)c1ccc(-c2ccc(C(O)CCCCCO)cc2)cc1 (stereo not given) | 28 µM | 

Compound | IC50 (J774) | also measured
COc1ccc(-c2ccc(C(=O)CCCCCO)cc2)c(OC)c1 | 50 µM | IC50 [1]: 13 µM
OCCCCCC(O)c1ccc(-c2ccccc2F)cc1 (stereo not given) | 22 µM | 
CSc1ccc(-c2ccc(C(O)CCCCCO)cc2)cc1 (stereo not given) | 24 µM | 
OCCCCCC(O)c1ccc(-c2ccc(Cl)cc2)cc1 (stereo not given) | 17 µM | 
OCCCCCC(O)c1ccc(-c2ccccc2)cc1 (stereo not given) | 22 µM | IC50 [1]: 8 µM; IC50 [2]: > 100 µM
O=C(CCCCCO)c1ccc(-c2ccc(F)cc2F)cc1Cl | 7 µM | Activity (Mus musculus [8]): -3%; IC50 [1]: 3 µM; IC50 [2]: > 100 µM
O=C(CCCCCO)c1ccc(-c2ccc(C(F)(F)F)cc2C(F)(F)F)cc1 | 23 µM | 
OCCCCCC(O)c1ccc(-c2ccc(C(F)(F)F)cc2)cc1 (stereo not given) | 13 µM | 
O=C(CCCCCO)c1ccc(-c2ccc(Cl)cc2Cl)cc1 | 8 µM | Activity (Mus musculus [4]): -6%; Activity (Mus musculus [8]): 6%; inhibition (Mus musculus [3]): Active; inhibition [7]: Active; inhibition (Mus musculus [9]): Active; IC50 [1]: 0.8 µM; inhibition [10]: Active; IC50 [2]: > 100 µM
O=C(CCCCCO)c1ccc(-c2ccc(F)cc2Cl)cc1 | 15 µM | 
OCCCCCC(O)c1ccc(-c2cccc(Cl)c2)cc1 (stereo not given) | > 100 µM | 
Cc1cccc(-c2ccc(C(=O)CCCCCO)cc2)c1 | 100 µM | inhibition [5]: inactive; inhibition [6]: inactive
Cc1cccc(-c2ccc(C(O)CCCCCO)cc2)c1 (stereo not given) | > 100 µM | 
Cc1cc(C(=O)CCCCCO)ccc1-c1ccc(F)cc1F | 8 µM | inhibition (Mus musculus [3]): Active; inhibition [7]: Active; IC50 [1]: 1.5 µM; inhibition [10]: Active
OCCCCCC(O)c1ccc(-c2ccccc2)c(F)c1 (stereo not given) | 17 µM | 
Cc1cc(F)ccc1-c1ccc(C(O)CCCCCO)cc1 (stereo not given) | 20 µM | 
COc1ccc(-c2ccc(C(=O)CCCCCO)cc2)cc1OC | 60 µM | IC50 [1]: 14 µM
OCCCCCC(O)c1ccc(-c2ccc(Cl)cc2Cl)cc1 (stereo not given) | 8 µM | 
O=C(CCCCCO)c1ccc(-c2ccc(F)cc2F)cc1 | 6 µM | Activity (Mus musculus [4]): 10%; IC50 [1]: 2 µM; IC50 [2]: > 100 µM
